Activity calls are given as the source filed them. The rule behind the calls is not given here.

Our source for the Activity values is ChEMBL document CHEMBL1152643, “Tedanol: a potent anti-inflammatory ent-pimarane diterpene from the Caribbean Sponge Tedania ignis” (Bioorg Med Chem, 2009).

Format in all cases: functional, organism-based
For assay [1], the system named is Mus musculus. As to the kind of experiment: Antiinflammatory activity against carrageenan-induced inflammation in CD1 mouse assessed as inhibition of iNOS expression at 1 mg/kg, ip after 48 hrs by Western blot. Details: dose 1 mg/kg. Background: A western blot detects proteins with antibodies after separation by electrophoresis.
For assay [2], the system named is Mus musculus. The assay is described as follows: Antiinflammatory activity against carrageenan-induced inflammation in CD1 mouse assessed as inhibition of iNOS expression at 1 mg/kg, ip after 2 hrs by Western blot. Further details: dose 1 mg/kg.
For assay [3], the system named is Mus musculus. As to the kind of experiment: Antiinflammatory activity against carrageenan-induced inflammation in CD1 mouse assessed as inhibition of MPO activity at 1 mg/kg, ip after 4 hrs. Further details: dose 1 mg/kg.
Assay [4] deals with Mus musculus. As to the kind of experiment: Antiinflammatory activity against carrageenan-induced inflammation in CD1 mouse assessed as inhibition of COX1 activity in second edema phase at 1 mg/kg, ip after 24 to 72 hrs by Western blot. Further details: dose 1 mg/kg.
Assay [5] deals with Mus musculus. The assay is described as follows: Antiinflammatory activity against carrageenan-induced inflammation in CD1 mouse assessed as inhibition of COX2 activity in second edema phase at 1 mg/kg, ip after 24 to 72 hrs by Western blot. Details: dose 1 mg/kg.
For assay [6], the system named is Mus musculus. The assay is described as follows: Antiinflammatory activity in ip dosed CD1 mouse assessed as inhibition of carrageenan-induced paw edema by hydroplethismometer.
Assay [7] concerns Mus musculus. The assay is described as follows: Antiinflammatory activity against carrageenan-induced inflammation in CD1 mouse assessed as inhibition of COX1 activity in second edema phase at 1 mg/kg, ip after 2 to 4 hrs by Western blot. Details: dose 1 mg/kg.
Assay [8] concerns Mus musculus. The assay is described as follows: Antiinflammatory activity against carrageenan-induced inflammation in CD1 mouse assessed as inhibition of MPO activity at 1 mg/kg, ip after 48 hrs. Details: dose 1 mg/kg.
Assay [9] relates to Mus musculus. The assay is described as follows: Antiinflammatory activity against carrageenan-induced inflammation in CD1 mouse assessed as inhibition of COX2 activity in early edema phase at 1 mg/kg, ip after 2 to 4 hrs by Western blot. Further details: dose 1 mg/kg.

In the case of `CC1(C)[C@H](Br)CC[C@@]2(C)C3=CC[C@](C)([C@@H](Br)COS(=O)(=O)O)C[C@H]3[C@H](O)C[C@H]12`, the result in assay [1], in [2], in assay [3], in assay [4], in [5] and in assay [8] was Active. Further, the result in assay [9] was Active. In assay [6], the Activity result was “Dose-dependent effect”. Besides, the result in assay [7] was inactive.
